Assay results published in article PMC4542628, “Lys39-Lysophosphatidate Carbonyl Oxygen Interaction Locks LPA1 N-terminal Cap to the Orthosteric Site and partners Arg124 During Receptor Activation” (Scientific Reports, 2015).

Experiments:
LPA1 K7.36A mutant = target: T1, LPA1 K7.36A mutant (Homo sapiens, UniProt Q92633, K294A); test: Intracellular calcium mobilization in B103 cells expressing K7.36A LPA1 mutant; assay type: cell-based; conditions: at the highest concentration tested
T1 construct: expressed in transfected cells; host or cells: B103 rat neuroblastoma cells, electroporated with pCAGGS-HA-LPA1 mutant
From the text: (§1) PCXN2.1-LPA1, an expression vector for human LPA1, was kindly provided by Dr. T. Shimizu (NCGM, Tokyo) (40). The mutants of LPA1 (Lys39Ala, Arg115Ala, Arg124Ala, Asp191Ala and Lys294Ala) were generated by a two-step PCR. The cDNA of the 5′ portion of LPA1 was amplified by PCR using a forward primer containing XhoI site and reverse primers containing the sequence encoding the mutated amino acids. The 3′ portion was also amplified with forward primers containing the mutated sequence and a reverse primer containing NotI and BglII sites. All cDNAs of the LPA1 variants were amplified using a mixture of the two PCR products together with the XhoI and NotI-containing primers. The resulting 1.0 KB products were cloned into a pCRII-Topo vector for sequence analysis. The cDNA of LPA1 mutants were cut out from pCRII-Topo by XhoI and NotI, and ligated into the XhoI/NotI sites of pCAGGS-HA (41), to generate pCAGGS-HA-LPA1 mutants.
(§2) B103 rat neuroblastoma cells that lack LPA response were cultured in DMEM containing 10% fetal bovine serum at 37 °C in a 5% CO2 atmosphere. […] After 30 min, 20 μl of the LPA species at defined concentration was added followed by an immediate recording of the fluorescence using the Functional Drug Screening System/μCell (Hamamatsu Photonics K.K., Hamamatsu city, Japan). The fluorescence intensity was described as fura-2 ratio (tested value/basal value) or fold induction. […]

LPA1 = tested on: LPA1; set-up: method as in earlier work; conditions: acting on LPA1; ref 31 (Williams et al.); cited from earlier work
wildtype LPA1 = target: T2, wildtype LPA1 (Homo sapiens, UniProt Q92633); test: Intracellular calcium mobilization in B103 cells expressing wild-type LPA1; assay type: cell-based
T2 construct: expressed in transfected cells; host or cells: B103 rat neuroblastoma cells (lack LPA response), electroporated
From the text: as §1, §2

T1 sequence (Q92633 whole entry K294A): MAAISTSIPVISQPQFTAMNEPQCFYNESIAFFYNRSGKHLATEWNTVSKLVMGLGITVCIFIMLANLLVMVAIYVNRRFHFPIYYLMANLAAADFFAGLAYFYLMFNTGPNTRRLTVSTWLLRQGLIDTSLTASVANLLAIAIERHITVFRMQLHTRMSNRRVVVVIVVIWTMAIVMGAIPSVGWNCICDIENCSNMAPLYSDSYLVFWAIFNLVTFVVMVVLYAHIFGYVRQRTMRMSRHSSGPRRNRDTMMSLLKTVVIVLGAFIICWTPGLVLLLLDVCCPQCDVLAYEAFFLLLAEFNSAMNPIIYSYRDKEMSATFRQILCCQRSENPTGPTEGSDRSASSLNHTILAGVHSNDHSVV
T2 sequence (Q92633 whole entry): as the sequence (Q92633 whole entry K294A) above, with A294K counted along it

intracellular calcium mobilization, Emax levels of the wildtype (LPA1 K7.36A mutant)	potency compared with LPA (18:1), dose-response curve (wildtype LPA1)	Compound	EC50 (LPA1) [nM]
≈ 60%		CCCCC/C=C\C/C=C\C/C=C\C/C=C\CCCC(=O)OC[C@@H](O)COP(=O)(O)O.N [LPA 20:4, 1-arachidonoyl-2-hydroxy-sn-glycero-3-phosphate (ammonium salt)]	
	right-shift in the dose-response curve	alkyl glycerol phosphate 18:1 [AGP (18:1)]	1500
